Experimental data from PMC6161602, “Synthesis and characterisation of (Z)-styrylbenzene derivatives as potential selective anticancer agents” (Journal of Enzyme Inhibition and Medicinal Chemistry, 2018).

Experiments:
[1] = test system: MCF-10A normal breast cell; assay: MTT cell growth inhibition assay, MCF-10A (normal); assay type: cell-based, human; conditions: Homo sapiens, 48 h incubation, MCF-10A normal cells
Description: (§1) All human cell lines were used in this study. MGC-803 late-stage differentiation gastric cancer cell, A549 lung cancer cell, HepG2 hepatoma cell, AGS gastric cancer cell, BEL-7402 liver cancer cell, HCT-116 colorectal cancer cell, HeLa cervical cancer cell, SGC-7901 early differentiation gastric cancer cell, L-02 normal liver cell, MCF-7 breast cancer cell, and MCF-10A normal breast cell were initially purchased from American Type Culture Collection (ATCC, Manassas, VA, USA). RPMI-1640 media, Dulbecco’s modified Eagle’s medium (DMEM), and foetal bovine serum (FBS) were provided from Gibco Company (Grand Island, NY, USA). The cells were maintained in DMEM or RPMI-1640, supplemented with 10% FBS, 100 IU/mL penicillin and […] (Grand Island, NY, USA), and at 37 °C in a humidified atmosphere containing 5% CO2.
(§2) Cells were plated in 96-well plates at a density of 30–40% to ensure exponential growth throughout the experimental period, and then allowed to adhere for 1 day[21]. Next, the cells were treated with four serial concentrations (1, 10, 50, and 100 µM) of each compound. Taxol, CA-4, and CA-4P (phosphorylated form of CA-4) were used as positive controls. After 48 h incubation, MTT solution was added to each well at a final concentration of 2 mg/mL, and incubated for an additional 4 h. Next, the MTT solution was removed and 150 µL of dimethyl sulphoxide (DMSO)/well was added (Sigma-Aldrich, St Louis, MO, USA). The plates were shaken vigorously at RT to ensure complete solubilisation, and absorption at 492 nm was determined.
(§3) According to standard protocol, preliminary in vitro anti-proliferative activities of the synthesised compounds were evaluated by MTT assay, using nine human cancer cell lines (MGC-803, A549, HepG2, AGS, BEL-7402, HCT116, HeLa, SGC-7901, and MCF-7) and two normal human cell lines (L-02 and MCF-10A), and compared with those of CA-4, CA-4P, and taxol.

BEL-7402 cells [2] = assay: Colony formation assay; assay type: cell-based, human; conditions: BEL-7402, exposure > 10 days, fitted from inhibition ratio of colony formation
Description: A previously described colony formation assay was used[7] with slight modification. 1 × 10^4 BEL-7402 cells/well were seeded into 6-well plates and then stimulated with the indicated concentration of 6h, taxol, or DMSO. The plates were removed from incubation when colonies were large enough to count (>50 cells). Colonies were then fixed and stained with 1 × Giemsa solution, rinsed, allowed to dry, and counted. All the experiments were repeated independently at least three times. The LD50 value for 6h was determined using SigmaPlot II.

[3] = test system: HeLa cervical cancer cell; assay: MTT cell growth inhibition assay, HeLa; assay type: cell-based, human; conditions: Homo sapiens, 48 h incubation
Description: as §1, §2, §3

BEL-7402 cells [4] = assay: MTT cell growth inhibition assay, BEL-7402; assay type: cell-based, human; conditions: Homo sapiens; MTT, 48 h incubation, Bel-7402
Description: as §1, §2, §3

BEL-7402 cells [5] = assay: Analysis of apoptosis by flow cytometry (Annexin V-FITC/PI); assay type: cell-based, human; conditions: BEL-7402, 0.1 µM, 12 h; vehicle 4.7%
Description: Apoptosis was detected using an apoptosis detection kit. BEL-7402 cells were plated in 6-well plates (5.0 × 10^5 cells/well) and incubated at 37 °C overnight. Exponentially growing cells were then incubated with 6h at either 0.01 or 0.1 µM, or taxol at 0.1 µM. Vehicle group was treated with 0.1% DMSO. Following 12 h of incubation, cells were analysed for apoptosis as previously described, using a FACSCalibur flow cytometer with Cell Quest software (Becton-Dickinson, Franklin Lakes, NJ, USA).

[6] = test system: SGC-7901 early differentiation gastric cancer cell; assay: MTT cell growth inhibition assay, SGC-7901; assay type: cell-based, human; conditions: Homo sapiens, 48 h incubation
Description: as §1, §2, §3

MCF-7 breast cancer cell = assay: MTT cell growth inhibition assay, MCF-7; assay type: cell-based, human
Description: as §1, §2, §3

cyclin A = assay: Western blotting, cyclin A; assay type: cell-based, human; conditions: BEL-7402, 12 h, immunoblot, dose-dependent
Description: (§4) BEL-7402 cells were harvested in logarithmic growth phase and the adherent and floating cells were collected after 12 h of drug treatment. The collected cells were resuspended in cold RIPA buffer (100 mM NaCl, 100 mM Tris (pH7.4), 10% Triton X-100, 1 mM PMSF, pH7.5) with 0.1 µM leupetin protease inhibitor as well as 1 µg/mL pepstatin and cracked on ice for 30 min. Then according to the reference to did immunoblotting assay.

HepG2 hepatoma cell = assay: MTT cell growth inhibition assay, HepG-2; assay type: cell-based, human
Description: as §1, §2, §3

MGC-803 cells = assay: MTT cell growth inhibition assay, MGC-803; assay type: cell-based, human; conditions: for IC50: MTT, 48 h incubation, MGC-803
Description: as §1, §2, §3

BEL-7402 cells [7] = assay: Analysis for cell cycle by flow cytometry; assay type: cell-based, human; conditions: BEL-7402, 12 h incubation, concentration-dependent increase from-to (0.01, 0.05, 0.1 µM)
Description: BEL-7402 cells were plated 6-well plates with 5.0 × 10^5 cells/well for overnight (O/N) and were synchronised at the G0 phase by serum starvation (0.1% FBS in RPMI-1640) for 24 h. Then the cells were incubated with 0.01, 0.05, 0.1 µM of 6h and 0.1 μM of taxol, respectively. Vehicle group was treated with 0.1% DMSO. Following 12 h of incubation, the cells were detached with 0.05% trypsin/5 mM EDTA and centrifuged at 1000 rpm for 10 min, and fixed in 70% ethanol at −20 °C for O/N. Then, the cells were subsequently analysed the cell cycle distribution by flow cytometry using a FACSCalibur flow cytometer with Cell Quest software (Becton-Dickinson, Franklin Lakes, NJ, USA), plotting at least 30,000 events per sample[22]. The percentage of cells in the G0/G1, S, and G2/M phases of the cell cycle were determined using the ModFit LT version 4.0 software package (Verity Software, Topsham, ME, USA).

BEL-7402 cells [8] = assay: Trypan blue staining; assay type: cell-based; conditions: 0.001 µM to 10 µM, data not shown
Description: Trypan blue staining was used to further investigate the cytotoxicity of 6h.

L-02 normal liver cell = assay: MTT cell growth inhibition assay, L-02 (normal); assay type: cell-based, human; conditions: Homo sapiens, 48 h incubation, L-02 normal cells
Description: as §1, §2, §3

HCT116 cells = assay: MTT cell growth inhibition assay, HCT116; assay type: cell-based, human
Description: as §1, §2, §3

cyclin B1 = assay: Western blotting, cyclin B1; assay type: cell-based, human; conditions: BEL-7402, 12 h, immunoblot
Description: as §4

## COc1cc(/C(C#N)=C/c2ccc(C)cc2)cc(OC)c1OC [Compound 6h, (Z)-3-(p-Tolyl)-2-(3,4,5-trimethoxyphenyl)acrylonitrile]
[1]
  IC50: 9.45 ± 5.25 µM
BEL-7402 cells [2]
  LD50 (colony formation): 0.056 ± 0.0047 µM
[3]
  IC50: > 100 µM
BEL-7402 cells [4]
  IC50: 0.15 ± 0.03 µM
BEL-7402 cells [5]
  total apoptotic cells (early + late apoptotic cells): 10.2%
[6]
  IC50: > 100 µM
MCF-7 breast cancer cell; Homo sapiens, MCF7, MTT, 48 h incubation, MCF-7
  IC50: 2.61 ± 0.98 µM
MCF-7 breast cancer cell; selectivity index, IC50 (MCF-10A)/IC50 (MCF-7)
  SI IC50 (MCF-10A/MCF-7): >3.6
Cyclin A
  expression of cyclin A compared with the vehicle group: lower expression
HepG2 hepatoma cell; Homo sapiens, HepG2, MTT, 48 h incubation, HepG-2
  IC50: 3.74 ± 1.73 µM
HepG2 hepatoma cell; selectivity index, IC50 (L-02)/IC50 (HepG-2)
  SI IC50 (L-02/HepG-2): >26.7
MGC-803 cells
  fold more active than taxol against MGC-803 cells: 6 fold
  IC50: < 0.01 µM
MGC-803 cells; Homo sapiens, MGC-803, 48 h
  IC50: 0.01 to 7.21 µM
BEL-7402 cells [7]
  percentage of S cell population: 4.44–19.35%
BEL-7402 cells [8]
  percentages of dead cells (trypan blue): negligible
L-02 normal liver cell
  IC50: > 100 µM
HCT116 cells; Homo sapiens, HCT-116, MTT, 48 h incubation, HCT116
  IC50: 0.61 ± 0.16 µM
HCT116 cells; selectivity index, IC50 (L-02)/IC50 (HCT116)
  SI IC50 (L-02/HCT116): >163.9
Cyclin B1
  expression of cyclin B1 compared with vehicle or 0.1 µM of taxol: increased expression
